In US11478451B1, “Macrocyclic chlorine substituted indole derivatives” (Bayer Aktiengesellschaft, priority 2017, dated 2022):
Counter-ions that a name gives are not always drawn. Like-named read-outs stand apart in the source and are kept apart here.

Legend:
MV-4-11 cells = assay: Antiproliferation assay (CellTiter-Glo, 72 h), MV-4-11; format: cell-based; details: IC50, median; MV-4-11, 72 h; read-out: Antiproli MV-4-11 [M] median
Experimental: (§1) Assessment of the Anti-Proliferative Effect of Compounds in Different Cell Lines
(§2) The impact of compounds on the proliferation of different cell lines was assessed using the CellTiter-Glo® Luminescent Cell Viability reagent from Promega (G7573).
(§3) In parallel, cells were plated in a reference (day 0) plate for time zero determination.
(§4) Rim wells were excluded. The cells were incubated for 72 h hours in a humidified incubator at 37° C. The day 0 plate was measured by adding 30 μL/well of CTG solution (CellTiter-Glo® Luminescent Cell Viability reagent, Promega G7573) to time zero wells in the reference plate followed by a 10 minutes incubation and luminescence reading at 0.1 ms. using the PHERAstar FS microplate reader (BMG Labtech).
(§5) After 72 h incubation, the treated plates were measured in the same way as the day 0 plate mentioned above.

SUDHL5 cells [1] = assay: Antiproliferation assay (CellTiter-Glo, 72 h), SUDHL5; format: cell-based; details: IC50, median, SUDHL5, 72 h, read-out: Antiproli SUDHL5 [M] (median)
Outline: (§6)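 Cells were incubated with compounds for 72 h at 37°C. Viability was then read by CellTiter-Glo luminescence, and a parallel day 0 plate read the same way gave the time-zero signal.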

SUDHL5 cells [2] = assay: Induction of cytotoxicity (CellTiter-Glo, 5 h), SUDHL5; details: SUDHL5, 5 h
SNU-389 cells = assay: Antiproliferation assay (CellTiter-Glo, 72 h), SNU-389; format: cell-based; details: read-out: Antiproli SNU-389 [M] median
Experimental: as §1, §2, §3, §4, §5

DMS-114 cells = assay: Antiproliferation assay (CellTiter-Glo, 72 h), DMS-114; format: cell-based; details: Homo sapiens, DMS-114, 72 h; read-out: Antiproli DMS-114 [M] median
Experimental: as §1, §2, §3, §4, §5

HMC-1-8 cells = assay: Antiproliferation assay (CellTiter-Glo, 72 h), HMC-1-8; format: cell-based; details: IC50, median, HMC-1-8, 72 h, read-out: Antiproli HMC-1-8 [M] median
Outline: as §6

AMO-1 cells = assay: Antiproliferation assay (CellTiter-Glo, 72 h), AMO-1; format: cell-based; details: IC50, median, AMO-1, 72 h, read-out: Antiproli AMO-1 [M] median
Outline: as §6

MCL-1 = MCL-1 (Homo sapiens (Human), UniProt Q07820, K194A/K197A/R201A); assay: Protein-protein interaction assay MCL-1/Noxa BH3 peptide (MCL-1 assay), TR-FRET; format: binding; details: IC50, median; MCL-1/Noxa BH3 TR-FRET
Experimental: The dose-dependent inhibition by the compounds described in this invention of the interaction between MCL-1 and the BH3 domain of Noxa (both human) was determined using a steady state binding competition assay with time-resolved fluorescence energy transfer (TR-FRET) readout. […] The MBP-MCL-1 was purchased from Beryllium (Bedford, Mass., USA). The expression and purification of this protein construct has been described elsewhere (DOI:10.1371/journal.pone.0125010). The Noxa BH3-derived peptide can be obtained from e.g. Biosyntan (Berlin, Germany), 50812.1.
For that, 100-fold concentrated DMSO solutions were prepared by serial dilutions (1:3.4) of a 2 mM stock solution in a clear, 384-well microtiter plate (Greiner Bio-One, Frickenhausen, Germany). From there, 50 nl were transferred in a dark test plate (Greiner Bio-One, Frickenhausen, Germany). […] This was followed by a 10-minute incubation step at 22° C. for pre-equilibration of the putative complex between MBP-MCL-1 and the compounds.
The mixture was incubated in the dark for one hour at 22° C. and then overnight at 4° C.
The resulting data (ratio) were normalized, taking 0% inhibition as the mean value of control measurements (usually 32 data points) where all reagents were included. In this case 50 nl DMSO were used instead of compounds. […] IC50 values were determined by regression analysis based on a 4 parameter equation (minimum, maximum, IC50, Hill; Y=Max+(Min−Max)/(1+(X/IC50)^Hill) using the Screener Software (Genedata).

SUDHL5 cells [3] = assay: Induction of caspase-3/7 activity (Caspase-Glo 3/7), SUDHL5; format: cell-based; details: EC50, median, SUDHL5, 3 h treatment
Outline: (§7)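 DLBCL lines treated with compounds for 3 h at 37 °C in a humidified incubator; caspase-3/7 activity read with Caspase-Glo 3/7 luminescent reagent. Medium-only background subtracted from all values.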

SUDHL10 cells [4] = assay: Induction of caspase-3/7 activity (Caspase-Glo 3/7), SUDHL10; format: cell-based; details: EC50, median, SUDHL10, 3 h treatment
Outline: as §7

SUDHL10 cells [5] = assay: Induction of cytotoxicity (CellTiter-Glo, 5 h), SUDHL10; details: SUDHL10, 5 h
[6] = read-out: Cytotox SUDHL5 [M] (median), IC50, median
[7] = Homo sapiens, SU-DHL10, 5 h, read-out: Cytotox SUDHL10 [M] (median), IC50, median
[8] = read-out: Cytotox SUDHL10 [M] (median), IC50, median

Sequence of MCL-1 (Q07820 whole entry K194A/K197A/R201A, looked up, the tested form may be a part): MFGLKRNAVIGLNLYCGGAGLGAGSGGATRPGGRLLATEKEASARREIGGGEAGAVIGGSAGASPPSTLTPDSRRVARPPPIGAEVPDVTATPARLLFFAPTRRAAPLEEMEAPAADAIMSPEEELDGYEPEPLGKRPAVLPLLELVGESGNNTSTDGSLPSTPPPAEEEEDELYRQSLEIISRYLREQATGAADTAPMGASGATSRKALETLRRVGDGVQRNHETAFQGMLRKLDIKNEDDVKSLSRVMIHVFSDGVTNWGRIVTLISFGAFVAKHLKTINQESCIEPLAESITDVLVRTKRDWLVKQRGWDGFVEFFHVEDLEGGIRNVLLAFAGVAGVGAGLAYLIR

Compound | IC50 (MV-4-11 cells) | IC50 (SUDHL5 cells [1]) | IC50 (SUDHL5 cells [2]; [6]) | IC50 (SNU-389 cells; 72 h) | IC50 (DMS-114 cells) | IC50 (HMC-1-8 cells; 72 h) | IC50 (AMO-1 cells) | EC50 (SUDHL10 cells [4]; Homo sapiens, SU-DHL10, 3 h) | IC50 (SUDHL10 cells [5]; [8]) | EC50 (SUDHL5 cells [3]) | IC50 (HMC-1-8 cells) | EC50 (SUDHL10 cells [4]) | also measured
Cc1c2c(nn1C)CN(C)CCCCn1c(C(=O)O)c(CCCOc3cccc4ccccc34)c3ccc(Cl)c-2c31 (single isomer, unassigned; enantiomer 2) [Example 13, (−)-4-chloro-2,3,14-trimethyl-7-[3-(naphthalen-1-yloxy)propyl]-10,11,12,13,14,15-hexahydro-2H-pyrazolo[3′,4′:8,9][1,6]diazacycloundecino[10,11,1-hi]indole-8-carboxylic acid-N-ethylethanamine salt (Enantiomer 2)] | 1.22e-05 M | 6.4e-06 M | 6.9e-06 M |  |  |  |  |  |  |  |  |  | 
CCc1nn(C)c2c1-c1c(Cl)ccc3c(CCCOc4cccc5cc(F)ccc45)c(C(=O)O)n(c13)CCCCN(C)C2 (single isomer, unassigned; enantiomer 2) [Example 41, 4-chloro-3-ethyl-7-{3-[(6-fluoronaphthalen-1-yl)oxy]propyl}-1,14-dimethyl-10,11,12,13,14,15-hexahydro-1H-pyrazolo[3′,4′:8,9][1,6]diazacycloundecino[10,11,1-hi]indole-8-carboxylic acid (Enantiomer 2)] |  | 1.5e-07 M |  | 5.56e-07 M | 3.65e-07 M | 7e-07 M | 5.4e-07 M |  |  |  |  |  | 
Cc1c2c(nn1C)COCCCCn1c(C(=O)O)c(CCCOc3cccc4ccccc34)c3ccc(Cl)c-2c31 (single isomer, unassigned; enantiomer 2) [Example 27, 4-chloro-2,3-dimethyl-7-[3-(naphthalen-1-yloxy)propyl]-2,10,11,12,13,15-hexahydropyrazolo-[4′,3′:9,10][1,6]oxazacycloundecino[8,7,6-hi]indole-8-carboxylic acid-N-ethylethanamine salt (Enantiomer 2)] | 1.61e-05 M | 7.8e-06 M |  |  |  |  |  |  |  |  |  |  | 
CCc1c2c(nn1C)CN(CCN1CCOCC1)CCCCn1c(C(=O)O)c(CCCOc3cccc4cc(F)ccc34)c3ccc(Cl)c-2c31 (single isomer, unassigned; enantiomer 2) [Example 143, 4-chloro-3-ethyl-7-{3-[(6-fluoronaphthalen-1-yl)oxy]propyl}-2-methyl-14-[2-(morpholin-4-yl)ethyl]-10,11,12,13,14,15-hexahydro-2H-pyrazolo[3′,4′:8,9][1,6]diazacycloundecino[10,11,1-hi]indole-8-carboxylic acid (Enantiomer 2)] |  | 9.4e-06 M |  |  |  |  |  |  |  |  |  |  | IC50 (MCL-1): 62 nM
Cc1c2c(nn1C)COCCn1c(C(=O)O)c(CCCOc3cccc4ccccc34)c3ccc(Cl)c-2c31 (racemic) [Example 87, (rac)-11-chloro-9,10-dimethyl-1-{3-[(naphthalen-1-yl)oxy]propyl}-4,5,7,9-tetrahydropyrazolo[4′,3′:7,8][1,4]oxazonino[6,5,4-hi]indole-2-carboxylic acid] |  |  |  | 1.52e-06 M | 1.32e-06 M | 4.7e-06 M |  | 210 nM |  |  |  |  | EC50 (SUDHL5 cells [3]; Homo sapiens, SU-DHL-5, 3 h): 170 nM; IC50 (SUDHL5 cells [1]; Homo sapiens, SU-DHL-5, 72 h): 5.5e-07 M; IC50 (AMO-1 cells; Homo sapiens, AMO1, 72 h): 3.8e-07 M; IC50 (SUDHL10 cells [5]; [7]): 2.6e-07 M
CCc1nn(C)c2c1-c1c(Cl)ccc3c(CCCOc4cccc5cc(F)ccc45)c(C(=O)O)n(c13)CCCCN(C)C2 (racemic) [Example 39, (rac)-4-chloro-3-ethyl-7-{3-[(6-fluoronaphthalen-1-yl)oxy]propyl}-1,14-dimethyl-10,11,12,13,14,15-hexahydro-1H-pyrazolo[3′,4′:8,9][1,6]diazacycloundecino[10,11,1-hi]indole-8-carboxylic acid] |  |  |  | 1.09e-06 M | 6.38e-07 M | 3.3e-06 M |  | 150 nM |  |  |  |  | IC50 (AMO-1 cells; Homo sapiens, AMO1, 72 h): 2.4e-07 M; IC50 (SUDHL10 cells [5]; [7]): 2.4e-07 M; IC50 (SUDHL5 cells [2]; Homo sapiens, SU-DHL-5, 5 h, read-out: Cytotox SUDHL5 [M] (median), IC50, median): 1.5e-07 M
CCc1c2c(nn1C)CN(C)CCCCn1c(C(=O)O)c(CCCOc3cccc4cc(F)ccc34)c3ccc(Cl)c-2c31 (single isomer, unassigned; enantiomer 1) [Example 6, 4-chloro-3-ethyl-7-{3-[(6-fluoronaphthalen-1-yl)oxy]propyl}-2,14-dimethyl-10,11,12,13,14,15-hexahydro-2H-pyrazolo[3′,4′:8,9][1,6]diazacycloundecino[10,11,1-hi]indole-8-carboxylic acid (Enantiomer 1)] |  |  | 1.5e-07 M | 6.96e-07 M | 4.97e-07 M | 3.4e-06 M | 2.4e-07 M | 220 nM | 3.6e-07 M |  |  |  | 
Cc1c2c(nn1C)COCCCCn1c(C(=O)O)c(CCCOc3cccc4cc(F)ccc34)c3ccc(Cl)c-2c31 (single isomer, unassigned; enantiomer 2) [Example 17, (−)-4-chloro-7-{3-[(6-fluoronaphthalen-1-yl)oxy]propyl}-2,3-dimethyl-2,10,11,12,13,15-hexahydropyrazolo[4′,3′:9,10][1,6]oxazacycloundecino[8,7,6-hi]indole-8-carboxylic acid-N-ethylethanamine salt (Enantiomer 2)] | 6.7e-06 M | 2.1e-07 M | 2.2e-07 M |  |  |  |  |  | 6.6e-07 M | 290 nM | 1.2e-06 M | 380 nM | IC50 (SNU-389 cells; IC50, median, SNU-389, 72 h): 9.86e-07 M
Cc1c2c(nn1C)COCC(F)(F)CCn1c(C(=O)O)c(CCCOc3cccc4ccccc34)c3ccc(Cl)c-2c31 (single isomer, unassigned; enantiomer 1) [Example 56, 4-chloro-12,12-difluoro-2,3-dimethyl-7-{3-[(naphthalen-1-yl)oxy]propyl}-2,10,11,12,13,15-hexahydropyrazolo[4′,3′:9,10][1,6]oxazacycloundecino[8,7,6-hi]indole-8-carboxylic acid-N-ethylethanamine salt—Enantiomer 1] |  | 3.4e-07 M | 2.2e-07 M | 1.23e-06 M | 7.79e-07 M |  | 4.4e-07 M |  | 3.3e-07 M | 130 nM | 3.3e-06 M | 310 nM | 
CCc1c2c(nn1C)COCC(O)CCn1c(C(=O)O)c(CCCOc3cccc4cc(F)ccc34)c3ccc(Cl)c-2c31 (stereo not drawn) [Example 100, 4-chloro-3-ethyl-7-{3-[(6-fluoronaphthalen-1-yl)oxy]propyl}-12-hydroxy-2-methyl-2,10,11,12,13,15-hexahydropyrazolo[4′,3′:9,10][1,6]oxazacycloundecino[8,7,6-hi]indole-8-carboxylic acid-N-ethylethanamine salt] |  | 1.9e-07 M | 1.8e-07 M | 1.18e-06 M | 1.85e-07 M |  | 6.7e-07 M |  | 1.8e-07 M | 220 nM | 5e-06 M | 120 nM | 
